Measurements as given in paper PMC2836207 (Journal of medicinal chemistry, 2009).

Target: MDA-MB-231 cells (Homo sapiens, UniProt P05556+P26006)
Assay: on-bead whole cell binding assay
Assay type: cell-based
Conditions: cell-growth-on-bead assay

MDA-MB-231 cells, sequence (P26006 33-1051): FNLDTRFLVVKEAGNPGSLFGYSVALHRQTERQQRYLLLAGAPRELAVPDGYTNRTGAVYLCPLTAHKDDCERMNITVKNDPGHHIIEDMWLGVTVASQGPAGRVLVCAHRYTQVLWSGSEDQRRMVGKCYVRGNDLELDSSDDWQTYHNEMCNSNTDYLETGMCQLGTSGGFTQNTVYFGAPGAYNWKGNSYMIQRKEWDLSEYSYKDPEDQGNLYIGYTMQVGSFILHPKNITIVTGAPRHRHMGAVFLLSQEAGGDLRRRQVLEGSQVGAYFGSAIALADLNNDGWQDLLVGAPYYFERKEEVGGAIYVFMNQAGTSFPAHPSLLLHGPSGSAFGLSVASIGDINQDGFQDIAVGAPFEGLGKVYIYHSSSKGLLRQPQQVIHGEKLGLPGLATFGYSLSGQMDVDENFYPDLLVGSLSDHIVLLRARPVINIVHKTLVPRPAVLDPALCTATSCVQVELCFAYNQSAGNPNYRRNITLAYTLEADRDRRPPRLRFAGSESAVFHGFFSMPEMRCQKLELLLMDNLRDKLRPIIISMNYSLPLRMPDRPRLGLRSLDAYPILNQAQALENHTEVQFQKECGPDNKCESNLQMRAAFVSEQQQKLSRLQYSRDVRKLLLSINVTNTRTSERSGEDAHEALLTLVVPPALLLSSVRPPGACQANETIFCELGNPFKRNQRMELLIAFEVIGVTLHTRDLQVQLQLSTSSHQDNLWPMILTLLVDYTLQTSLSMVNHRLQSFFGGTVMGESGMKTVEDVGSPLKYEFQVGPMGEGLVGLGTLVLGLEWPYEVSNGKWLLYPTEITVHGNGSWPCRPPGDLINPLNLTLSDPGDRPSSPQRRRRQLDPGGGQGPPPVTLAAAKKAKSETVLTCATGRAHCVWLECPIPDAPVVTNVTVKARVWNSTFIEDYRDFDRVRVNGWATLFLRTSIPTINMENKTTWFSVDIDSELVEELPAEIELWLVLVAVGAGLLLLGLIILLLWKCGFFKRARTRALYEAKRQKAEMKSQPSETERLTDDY
MDA-MB-231 cells, sequence (P05556 21-798): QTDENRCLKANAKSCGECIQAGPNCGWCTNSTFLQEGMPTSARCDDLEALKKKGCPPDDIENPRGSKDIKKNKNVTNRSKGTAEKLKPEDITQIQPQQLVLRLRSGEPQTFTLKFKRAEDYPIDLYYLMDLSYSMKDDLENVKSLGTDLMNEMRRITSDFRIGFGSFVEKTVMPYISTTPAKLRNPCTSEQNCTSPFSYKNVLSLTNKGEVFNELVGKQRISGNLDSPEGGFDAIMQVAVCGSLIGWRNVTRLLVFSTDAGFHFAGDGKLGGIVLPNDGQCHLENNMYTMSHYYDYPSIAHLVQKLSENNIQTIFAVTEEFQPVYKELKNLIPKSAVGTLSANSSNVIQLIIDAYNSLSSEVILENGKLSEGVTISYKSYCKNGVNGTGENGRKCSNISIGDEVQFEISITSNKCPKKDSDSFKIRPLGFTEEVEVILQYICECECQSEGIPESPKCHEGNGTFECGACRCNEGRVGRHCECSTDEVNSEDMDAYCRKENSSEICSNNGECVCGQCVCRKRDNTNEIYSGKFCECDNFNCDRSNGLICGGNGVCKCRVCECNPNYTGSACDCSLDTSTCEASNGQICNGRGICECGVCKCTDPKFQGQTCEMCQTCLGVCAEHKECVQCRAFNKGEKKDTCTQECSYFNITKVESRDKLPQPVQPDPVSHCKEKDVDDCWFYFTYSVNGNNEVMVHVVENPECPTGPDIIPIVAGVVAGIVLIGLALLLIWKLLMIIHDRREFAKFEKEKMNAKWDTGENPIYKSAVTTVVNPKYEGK

Substance: cEGLGEWc
- cell binding to peptide bead: shown to bind
